Experimental data reported in patent EP0906100B1, “USE OF 5-HT 1A? RECEPTOR ANTAGONISTS FOR THE TREATMENT OF URINARY INCONTINENCE” (RECORDATI S.A., priority 1996, dated 1997).

Tested on: post-synaptic 5-HT1A receptor
Assay: Inhibition of forepaw treading induced by 8-OH-DPAT in rats
Format: in vivo
Conditions: i.p., forepaw treading induced by 1 mg/kg s.c. 8-OH-DPAT
Protocol: Inhibition of forepaw treading induced by 8-OH-DPAT in rats:
Male Sprague-Dawley rats (150-175 g) obtained from Charles River (Italy), were housed in a climate-controlled room and maintained on a 12 h light/dark cycle with free access to food and water. On the day of experiment, rats were placed singly in clear plastic boxes. Reserpinised rats were treated with reserpine, 1 mg/kg s.c., 18-24 h before the test.
The appearance of the forepaw treading symptom induced by post-synaptic stimulation of the 5HT1A receptors was noted, and its intensity was scored using a ranked intensity scale in which: 0 = absent, 1 = equivocal, 2 = present and 3 = intense. Behavioural scores for each treated rat were accumulated over the time course (5 observation periods) and expressed as mean values of 8-10 rats.

Compound: COc1ccccc1N1CCN(CCCCN2C(=O)c3ccccc3C2=O)CC1 [NAN-190, 1-(2-methoxyphenyl)-4-[4-(2-phthalimido)-butyl]-piperazine]
- NORMAL RATS ID50 (normal rats): 700 (500-1000) µg/Kg
- RESERPINIZED RATS ID50 (reserpinized rats): 2000 (1600-2400) µg/Kg
